Structures can show the parent of a compound that is named as a salt.
Experiments:
[1] = target: T1, C-terminal kinase domain of murine RSK2 (Mus musculus, UniProt P18654); assay: X-ray co-crystal structure of RSK2 C-terminal kinase domain with DMF; type: binding; conditions: 1.9 Å resolution X-ray crystal structure; RSK2 8 mg/ml with 5 mM DMF, 30 min at room temperature
T1 construct: His8 (N, cleaved yes); linker DYDIPTT (N, cleaved yes); TEV protease site ENLYFQG (only the final G remains after cleavage) (N, cleaved yes); made in house; host or cells: E. coli BL21 (DE3) Rosetta, RSK2-pET-22b
Text: A construct of the C-terminal kinase domain of murine Ribosomal S6 Kinase 2 (RSK2) (residues 400-740; SEQ ID NO. 2) including a N-terminal polyhistidine tag (His8), a linker (DYDIPTT) (SEQ ID NO: 21) and a Tobacco Etch Virus (TEV) protease site (ENLYFQG) (SEQ ID NO: 22) in the expressed kinase was designed and ordered from Genscript. The synthesised gene was subcloned into pET-22b (Novagen) by the vendor resulting in RSK2-pET-22b. BI21 (DE3) Rosetta was transformed with RSK2-pET-22b and plated on lysogeny broth (LB) agar plates supplemented with 50 μg/ml ampicillin (Amp) and 35 μg/ml Chloramphenicol (Cam). 5 colonies were used for inoculation of a 20 ml LB overnight culture supplemented with 100 μg/ml Amp and 35 μg/ml Cam. 2 liters of LB, supplemented with 100 μg/ml Amp and 35 μg/ml Cam, was inoculated with the overnight culture and grown at 37° C. Expression was induced with 0.1 mM isopropyl β-D-1-thiogalactopyranoside at an optical density of A600 nm=0.8 and the temperature was lowered to 20° C. for 3 h and further lowered to 12° C. for 20 hours. […] Protein concentration was evaluated by spectrophotometry (Nanodrop, Thermo Fisher Scientific) assuming εRSK2=44350 cm^−1 M^−1 and MRSK2=38.4 kDa. […] RSK2 purity was evaluated by SDS-PAGE using a 15% separation gel. […] The purification procedure resulted >95% pure and stable RSK2 evaluated by SDS-PAGE and mass spectrometry. […]

RSK2 = target: T2, RSK2 (Mus musculus, UniProt P18654, C599V); assay: Mutational study of RSK2 in EGF-stimulated HEK 293 cells, Western blot p-RSK2 (Ser386); type: cell-based; conditions: 140 μM DMF pre-incubated 1 hour, 1 ng/ml EGF for 15 minutes
T2 construct: expressed in transfected cells; host or cells: HEK-293
Procedure: Human embryonic kidney cells (HEK-293) were cultured in tissue culture flasks (150 cm^2) to 60% confluence in Dulbecco's modified Eagle's medium (DMEM) (Gibco) supplemented with 50 units/ml penicillin G (Gibco), […] streptomycin (Invitrogen), 5 μg/ml gentamycin (Gibco), 10% (v/v) foetal bovine serum (FBS) (Gibco) and 2.5% HEPES (Gibco). Cells were trypsinated and seeded in 10 cm petri dishes at a density of 6.5×10^6 cells per dish in 10 ml DMEM supplemented with 50 μg/ml bovine pituitary growth hormone (BGH) (Gibco), antibiotics (penicillin G, streptomycin, gentamycin) and 2% FBS and 2.5% HEPES and were incubated for 2 days. The culture medium was changed to 7 ml DMEM supplemented with 2.5% Hepes for 16 hours. Transfection with plasmids was performed as previously described Jensen et al. 1999^57 with modifications. HEK-293 cells were transfected using 3.5 μg plasmid DNA/dish dissolved in 250 μl Optimem (Invitrogen) and 30 μl Lipofectamine 2000 (Invitrogen) dissolved in 250 μl Optimem added together for 20 minutes before transferred to cells. […]
(§1) Dimethylfumarate (DMF) (Sigma-Aldrich) was dissolved in dimethylsulfoxide (DMSO) (Merck) resulting in a 70 mM stock solution and diluted to 7 mM (4% v/v DMSO) in culture medium. […] Densitometry analysis of the band intensity was performed on a flatbed scanner (Epson PERFECTION V750PRO) and quantitated by Jelly Quant.

RSK2 cysteine 599 (C599) = target: T3, RSK2 cysteine 599 (C599) (Mus musculus, UniProt P18654); assay: Mass spectrometric analysis of DMF modification of RSK2; type: binding, murine; conditions: chymotrypsin digest, MALDI TOF/TOF
T3 construct: His8 (N, cleaved yes); linker DYDIPTT (N, cleaved yes); TEV protease site ENLYFQG (only the final G remains after cleavage) (N, cleaved yes); made in house; host or cells: E. coli BL21 (DE3) Rosetta, RSK2-pET-22b
Text: A construct of the C-terminal kinase domain of murine Ribosomal S6 Kinase 2 (RSK2) (residues 400-740; SEQ ID NO. 2) including a N-terminal polyhistidine tag (His8), a linker (DYDIPTT) (SEQ ID NO: 21) and a Tobacco Etch Virus (TEV) protease site (ENLYFQG) (SEQ ID NO: 22) in the expressed kinase was designed and ordered from Genscript. The synthesised gene was subcloned into pET-22b (Novagen) by the vendor resulting in RSK2-pET-22b. BI21 (DE3) Rosetta was transformed with RSK2-pET-22b and plated on lysogeny broth (LB) agar plates supplemented with 50 μg/ml ampicillin (Amp) and 35 μg/ml Chloramphenicol (Cam). 5 colonies were used for inoculation of a 20 ml LB overnight culture supplemented with 100 μg/ml Amp and 35 μg/ml Cam. […] Protein concentration was evaluated by spectrophotometry (Nanodrop, Thermo Fisher Scientific) assuming εRSK2=44350 cm^−1 M^−1 and MRSK2=38.4 kDa. […] RSK2 purity was evaluated by SDS-PAGE using a 15% separation gel. […] The purification procedure resulted >95% pure and stable RSK2 evaluated by SDS-PAGE and mass spectrometry.
RSK2 samples were reduced and alkylated with iodoacetamide, i.e. carbamidomethylated, and subsequently digested with chymotrypsin. […] The peptide mixture was analyzed in positive reflector mode for accurate peptide mass determination. […]

human MSK1 = target: T4, human MSK1 (Homo sapiens, UniProt O75582, C603V); assay: Mutational study of MSK1 in EGF-stimulated HEK 293 cells, Western blot p-MSK1 (Ser376); type: cell-based; conditions: 140 μM DMF pre-incubated 1 hour, 1 ng/ml EGF for 30 minutes
T4 construct: expressed in transfected cells; host or cells: HEK-293, vector pEBG2T
Procedure: Mutational analysis of MSK1 was performed in a mammalian expression vector (pEBG2T) in which a glutathione S-transferase (GST) domain and FLAG-tag (Asp-Tyr-Lys-Asp-Asp-Asp-Asp-Lys) was fused to the N-terminus of human MSK1 (GST-FLAG-MSK1)^6. The positions corresponding to C436, T579 and C599 in murine RSK2 (SEQ ID NO: 1) of human MSK1 (C440, T583 and C603) were mutated to Val, Ser and Thr (For T583 only an Ala mutation was performed) using the QuikChange Lightning Kit (Agilent Technologies).
Human embryonic kidney cells (HEK-293) were cultured in tissue culture flasks (150 cm^2) to 60% confluence in Dulbecco's modified Eagle's medium (DMEM) (Gibco) supplemented with 50 units/ml penicillin G (Gibco), […] streptomycin (Invitrogen), 5 μg/ml gentamycin (Gibco), 10% (v/v) foetal bovine serum (FBS) (Gibco) and 2.5% HEPES (Gibco). […]
as §1, with “Quant. […]” for “Quant.”

T1 sequence (P18654 with tags, fused parts or gaps): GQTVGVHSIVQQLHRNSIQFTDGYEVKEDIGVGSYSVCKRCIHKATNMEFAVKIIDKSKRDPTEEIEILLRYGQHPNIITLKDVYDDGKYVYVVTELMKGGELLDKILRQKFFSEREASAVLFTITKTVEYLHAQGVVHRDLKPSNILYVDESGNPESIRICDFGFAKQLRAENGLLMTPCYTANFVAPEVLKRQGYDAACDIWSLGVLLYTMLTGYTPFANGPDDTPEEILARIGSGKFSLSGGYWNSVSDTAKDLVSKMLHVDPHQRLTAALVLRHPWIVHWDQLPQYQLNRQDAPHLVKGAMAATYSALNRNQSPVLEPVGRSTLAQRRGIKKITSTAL
T3 sequence (P18654 with tags, fused parts or gaps): as above
T4 sequence (O75582 whole entry C603V): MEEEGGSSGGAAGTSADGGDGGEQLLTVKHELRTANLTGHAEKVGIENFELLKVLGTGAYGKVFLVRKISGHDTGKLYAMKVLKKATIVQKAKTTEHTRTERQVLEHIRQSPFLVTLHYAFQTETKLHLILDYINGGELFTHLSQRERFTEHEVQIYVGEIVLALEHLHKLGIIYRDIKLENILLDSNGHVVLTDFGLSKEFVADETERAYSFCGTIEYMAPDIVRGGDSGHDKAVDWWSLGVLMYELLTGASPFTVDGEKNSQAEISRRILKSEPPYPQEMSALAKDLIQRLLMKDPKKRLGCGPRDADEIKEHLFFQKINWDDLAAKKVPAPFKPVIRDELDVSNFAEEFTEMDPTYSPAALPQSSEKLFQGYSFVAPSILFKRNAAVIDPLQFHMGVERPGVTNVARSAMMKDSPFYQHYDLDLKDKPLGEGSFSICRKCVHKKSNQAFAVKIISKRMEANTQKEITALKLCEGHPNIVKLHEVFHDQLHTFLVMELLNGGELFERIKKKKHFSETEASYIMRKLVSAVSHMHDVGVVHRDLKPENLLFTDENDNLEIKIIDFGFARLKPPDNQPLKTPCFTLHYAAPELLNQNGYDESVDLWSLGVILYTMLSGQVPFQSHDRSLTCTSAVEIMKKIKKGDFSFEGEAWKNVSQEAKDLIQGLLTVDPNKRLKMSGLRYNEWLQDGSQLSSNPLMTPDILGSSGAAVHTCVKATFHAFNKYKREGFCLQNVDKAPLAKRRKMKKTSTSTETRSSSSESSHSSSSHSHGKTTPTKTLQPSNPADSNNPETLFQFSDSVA
T2 sequence (P18654 whole entry C599V): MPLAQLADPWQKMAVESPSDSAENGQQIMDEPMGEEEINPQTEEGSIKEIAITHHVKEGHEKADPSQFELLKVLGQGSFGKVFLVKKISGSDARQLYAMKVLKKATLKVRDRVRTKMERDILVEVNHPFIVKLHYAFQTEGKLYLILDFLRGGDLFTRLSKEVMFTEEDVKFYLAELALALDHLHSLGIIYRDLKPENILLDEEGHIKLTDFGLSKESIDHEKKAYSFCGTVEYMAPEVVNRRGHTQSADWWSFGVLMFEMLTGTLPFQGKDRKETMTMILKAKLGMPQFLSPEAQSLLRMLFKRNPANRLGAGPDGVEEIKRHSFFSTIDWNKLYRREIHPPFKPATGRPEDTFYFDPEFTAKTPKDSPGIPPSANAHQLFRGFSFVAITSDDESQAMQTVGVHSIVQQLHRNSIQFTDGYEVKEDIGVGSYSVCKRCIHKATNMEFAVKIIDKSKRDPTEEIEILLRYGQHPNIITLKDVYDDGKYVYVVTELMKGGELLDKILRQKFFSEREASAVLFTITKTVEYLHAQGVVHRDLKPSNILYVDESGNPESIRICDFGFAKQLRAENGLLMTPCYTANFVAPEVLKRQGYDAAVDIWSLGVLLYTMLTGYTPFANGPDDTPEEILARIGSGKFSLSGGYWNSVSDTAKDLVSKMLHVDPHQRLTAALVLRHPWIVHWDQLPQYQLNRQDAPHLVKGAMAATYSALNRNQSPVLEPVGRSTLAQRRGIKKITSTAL

SMILES: COC(=O)/C=C/C(=O)OC [DMF, dimethyl fumarate]
- binding of DMF to RSK2 in co-crystal structure [1]: binding of one DMF molecule to RSK2
- effect of DMF on phosphorylation of S386 of RSK2 mutant C599 to valine (RSK2): no decrease in the phosphorylation of S386 was observed
- covalent modification of C599 of RSK2 by DMF (RSK2 cysteine 599 (C599)): Covalent modification of C599 was identified
- effect of DMF on phosphorylation of S376 of MSK1 mutant C603 to valine (human MSK1): no decrease in the phosphorylation of S376 was observed

— US9534209B2, “Methods and tools for identification of RSK/MSK kinase inhibitors” (Aarhus Universitet, priority 2012, dated 2017)
